Drawing on patent US9072734B2, “Quaternary ammonium salt compounds” (Teijin Pharma Limited, priority 2009, dated 2015), this text covers IC50, EC50 and inhibition in vivo for ten molecules.

Assay [1] deals with T1, human M3 muscarinic receptor (Homo sapiens, UniProt P20309).
T1 construct: expressed in transfected cells; host or cells: CHO-K1
The assay can be described thus: Inhibitory effect on methacholine-induced calcium influx, FLIPR assay, CHO-K1 cells stably expressing the human M3 muscarinic receptor. The class given is cell-based. To be noted: inhibition of calcium influx induced by methacholine. In short, it runs like this:
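Dye-loaded hM3 CHO-K1 cells were preincubated 180 s with compound solutions prepared at 10 two-fold concentrations (0.01–1000 nM). A 30 nM methacholine solution was then added. Fluorescence was traced for 170 s; max−min signal gave % inhibition against agonist and no-agonist controls, and IC50 came from a four-parameter logistic fit.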

Assay [2] addresses T2, human β2 adrenergic receptor (Homo sapiens, UniProt P07550).
T2 construct: expressed in transfected cells; host or cells: CHO-K1
Nature of the assay: Whole-cell cAMP Flashplate assay using CHO-K1 cells stably expressing human β2 adrenergic receptor. Format: cell-based. Particulars: cAMP production.

Assay [3] relates to acetylcholine-induced bronchoconstriction in guinea pigs. The assay can be described thus: Effects on acetylcholine-induced bronchoconstriction in guinea pigs. Format: in vivo, guinea pig. To be noted: Cavia porcellus; 24 hours after 25 μg/kg of the compounds were administered; read-out: percentage of bronchoconstriction suppression with respect to the acetylcholine stimulation. On the procedure:
These in vivo assays are used to evaluate the bronchoprotective effects based on the M3 muscarinic receptor antagonist activity and the β2 adrenergic receptor agonist activity of test compounds. Hartley male guinea pigs (Nippon SLC, Inc.) weighing about 400-500 g were used. The animals were anesthetized by inhalation of Fluothane (Takeda Pharmaceutical Company Limited) in a plastic box. The test compounds were dissolved in physiological saline containing DMSO, and administered through the nasal cavity into the trachea at a dose of 0.04-25 μg/kg and at a volume of 0.4 mL/kg. For control animals, solvent without a test compound was administered. In general, animals awake several minutes after completion of the administration. The animals were anesthetized with an intraperitoneal administration of 33% urethane/0.8% α-chloralose at a dose of 3 mL/kg. In order to intravenously administer acetylcholine or histamine, a catheter was inserted into the carotid artery. In order to measure artificial respiration and airway ventilation pressure, a cannula was inserted into the trachea. Artificial respiration was applied to the animals at a volume of 10 mL/kg and at a frequency of 60/minute, using a ventilator (Harvard Apparatus). The airway ventilation pressure was measured by the Konzett-Roessler method using a general respiratory function analysis system (M.I.P.S). Prior to administration of acetylcholine or histamine, the airway ventilation pressure was measured and baseline values were recorded. Then, physiological saline was administered through the carotid artery catheter at a volume of 0.4 mL/kg, and the airway ventilation pressure was measured. Bronchoconstrictor response was induced by administering acetylcholine (40 μg/kg, 0.4 mL/kg) or histamine (15 μg/kg, 0.4 mL/kg) through the carotid artery catheter one hour after the administration of the test compounds, and the airway ventilation pressure at the maximum contractile response was recorded. In addition, in order to evaluate duration of action of the test compounds, the above-mentioned dose of acetylcholine or histamine was administered, 1 hour, 6 hours, 12 hours, 18 hours, and 24 hours after the administration of test compounds, and the airway ventilation pressure was measured in the same way. The percentage of suppression by the test compounds with respect to the airway contractile response was calculated according to the following formula. (%) Percentage of the airway constriction suppression=(Airway ventilation pressure of test compound-dosed and acetylcholine- or histamine-dosed animals−Baseline value)/(Airway ventilation pressure of acetylcholine- or histamine-dosed animals−Baseline value)×100
The 50% inhibitory doses (ID50 values) of the test compounds were analyzed by a sigmoidal logistic model using XLfit4 (IDBS, Ltd.) for the percentage of the bronchoconstriction suppression at different doses of the test compounds.

Molecules are shown by their SMILES. Where a name gives a salt, the structure may show the parent alone.

T1 sequence (P20309 whole entry): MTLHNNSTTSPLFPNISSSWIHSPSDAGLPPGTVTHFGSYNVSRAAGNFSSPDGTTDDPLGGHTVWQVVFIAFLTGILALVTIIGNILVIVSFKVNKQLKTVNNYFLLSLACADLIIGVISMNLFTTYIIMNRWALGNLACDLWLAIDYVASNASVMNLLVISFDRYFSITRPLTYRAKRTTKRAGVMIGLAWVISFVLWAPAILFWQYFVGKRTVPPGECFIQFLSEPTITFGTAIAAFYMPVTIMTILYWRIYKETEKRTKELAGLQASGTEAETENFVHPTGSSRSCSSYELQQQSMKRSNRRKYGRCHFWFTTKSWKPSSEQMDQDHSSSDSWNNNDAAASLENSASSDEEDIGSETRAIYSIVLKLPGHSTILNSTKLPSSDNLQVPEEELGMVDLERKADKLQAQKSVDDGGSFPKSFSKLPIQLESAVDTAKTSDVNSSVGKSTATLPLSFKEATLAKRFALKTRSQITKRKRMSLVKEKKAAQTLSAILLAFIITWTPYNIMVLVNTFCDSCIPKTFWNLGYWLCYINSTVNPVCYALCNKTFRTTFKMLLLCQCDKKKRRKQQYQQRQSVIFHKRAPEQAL
T2 sequence (P07550 whole entry): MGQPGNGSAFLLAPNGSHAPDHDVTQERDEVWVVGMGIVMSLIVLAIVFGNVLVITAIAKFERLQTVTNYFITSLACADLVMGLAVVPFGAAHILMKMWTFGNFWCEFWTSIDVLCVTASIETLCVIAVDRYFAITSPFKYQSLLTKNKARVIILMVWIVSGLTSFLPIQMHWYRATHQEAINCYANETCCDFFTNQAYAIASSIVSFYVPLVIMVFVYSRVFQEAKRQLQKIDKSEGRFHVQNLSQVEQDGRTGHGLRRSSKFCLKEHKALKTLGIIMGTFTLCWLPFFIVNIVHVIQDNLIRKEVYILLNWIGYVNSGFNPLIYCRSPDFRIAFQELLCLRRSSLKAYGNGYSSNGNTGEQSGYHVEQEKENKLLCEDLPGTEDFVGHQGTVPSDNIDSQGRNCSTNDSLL

Turning to `COc1cc(NC(=O)CCCc2ccc(-c3ccccc3)c(NC(=O)OC3CC[N+](C)(C)CC3)c2)c(Br)cc1CNC[C@H](O)c1ccc(O)c2[nH]c(=O)ccc12` [Example 25, 4-({[5-(3-{[2-bromo-4-({[(2R)-2-hydroxy-2-(8-hydroxy-2-oxo-1,2-dihydroquinolin-5-yl)ethyl]amino}methyl)-5-methoxyphenyl]carbamoyl}propyl)-2-phenylphenyl]carbamoyl}oxy)-1,1-dimethylpiperidin-1-ium trifluoroacetate], in assay [1], the IC50 (in general, the midpoint of a concentration-inhibition curve) is 19 nM. Moreover, the midpoint of the response in assay [2], the EC50, lay at 0.4 nM. The inhibition in vivo at 0.025 mg/kg in assay [3] is no less than 50%.

`COc1cc(NC(=O)CCc2ccc(-c3ccccc3)c(NC(=O)OC3CC[N+](C)(C)CC3)c2)ccc1CNC[C@H](O)c1ccc(O)c2[nH]c(=O)ccc12` [Example 6, 4-({[5-(2-{[4-({[(2R)-2-hydroxy-2-(8-hydroxy-2-oxo-1,2-dihydroquinolin-5-yl)ethyl]amino}methyl)-3-methoxyphenyl]carbamoyl}ethyl)-2-phenylphenyl]carbamoyl}oxy)-1,1-dimethylpiperidin-1-ium trifluoroacetate]: the IC50 in assay [1] came out at 9 nM. In addition, a half-maximal response in assay [2] (EC50) required 1.7 nM. In addition, the inhibition in vivo at 0.025 mg/kg in assay [3] was no less than 50%.

In the case of `COc1cc(NC(=O)CCCc2ccc(-c3ccccc3)c(NC(=O)OC3CC[N+](C)(C)CC3)c2)ccc1CNC[C@H](O)c1ccc(O)c2[nH]c(=O)ccc12` [Example 20, 4-({[5-(3-{[4-({[(2R)-2-hydroxy-2-(8-hydroxy-2-oxo-1,2-dihydroquinolin-5-yl)ethyl]amino}methyl)-3-methoxyphenyl]carbamoyl}propyl)-2-phenylphenyl]carbamoyl}oxy)-1,1-dimethylpiperidin-1-ium trifluoroacetate], the IC50 in assay [1] was 16.8 nM. Moreover, the EC50 – broadly, the concentration that produces a half-maximal response – in assay [2] turned out to be 2.6 nM. Moreover, the inhibition in vivo at 0.025 mg/kg in assay [3] was no less than 50%.

Consider `C[N+]1(C)CCC(OC(=O)Nc2cc(CCCOc3ccc(CCNC[C@H](O)c4ccc(O)c5[nH]c(=O)ccc45)cc3)ccc2-c2ccccc2)CC1` [Example 77, 4-{[(5-{3-[4-(2-{[(2R)-2-hydroxy-2-(8-hydroxy-2-oxo-1,2-dihydroquinolin-5-yl)ethyl]amino}ethyl)phenoxy]propyl}-2-phenylphenyl)carbamoyl]oxy}-1,1-dimethylpiperidin-1-ium trifluoroacetate], for which the IC50 in assay [1] came out at 36.3 nM. In assay [2], this molecule had an EC50 of 1.5 nM. Further, in assay [3], the inhibition in vivo at 0.025 mg/kg was no less than 50%.

As for `COc1cc(NC(=O)CCCc2ccc(-c3ccccc3)c(NC(=O)OC3CC[N+](C)(C)CC3)c2)c(Cl)cc1CNC[C@H](O)c1ccc(O)c2[nH]c(=O)ccc12` [Example 18, 4-({[5-(3-{[2-chloro-4-({[(2R)-2-hydroxy-2-(8-hydroxy-2-oxo-1,2-dihydroquinolin-5-yl)ethyl]amino}methyl)-5-methoxyphenyl]carbamoyl}propyl)-2-phenylphenyl]carbamoyl}oxy)-1,1-dimethylpiperidin-1-ium trifluoroacetate], the IC50 in assay [1] was 8.9 nM. The same molecule displayed an EC50 in assay [2] of 0.6 nM. Also, the inhibition in vivo at 0.025 mg/kg in assay [3] is no less than 50%.

Take `C[N+]1(C)CCC(OC(=O)Nc2cc(CCCC(=O)Nc3ccc(CNC[C@H](O)c4ccc(O)c5[nH]c(=O)ccc45)cc3Cl)ccc2-c2ccccc2)CC1` [Example 19, 4-({[5-(3-{[2-chloro-4-({[(2R)-2-hydroxy-2-(8-hydroxy-2-oxo-1,2-dihydroquinolin-5-yl)ethyl]amino}methyl)phenyl]carbamoyl}propyl)-2-phenylphenyl]carbamoyl}oxy)-1,1-dimethylpiperidin-1-ium trifluoroacetate]: the IC50 in assay [1] worked out at 8.7 nM. Also, a half-maximal effect in assay [2] (EC50) was put at 1.2 nM. For the same molecule, the inhibition in vivo at 0.025 mg/kg in assay [3] is no less than 50%.

As for `C[N+]1(C)CCC(OC(=O)Nc2cc(CCC(=O)Nc3ccc4cc(CNC[C@H](O)c5ccc(O)c6[nH]c(=O)ccc56)ccc4c3)ccc2-c2ccccc2)CC1` [Example 12, 4-({[5-(2-{[6-({[(2R)-2-hydroxy-2-(8-hydroxy-2-oxo-1,2-dihydroquinolin-5-yl)ethyl]amino}methyl)naphthalen-2-yl]carbamoyl}ethyl)-2-phenylphenyl]carbamoyl}oxy)-1,1-dimethylpiperidin-1-ium trifluoroacetate], the IC50 in assay [1] is 26.4 nM. This molecule showed an EC50 in assay [2] of 4.6 nM. For the same molecule, in assay [3], the inhibition in vivo at 0.025 mg/kg is no less than 50%.

With `COc1cc(NC(=O)CCc2ccc(-c3ccccc3)c(NC(=O)OC3CC[N+](C)(C)CC3)c2)c(Cl)cc1CNC[C@H](O)c1ccc(O)c2[nH]c(=O)ccc12` [Example 2, 4-({[5-(2-{[2-chloro-4-({[(2R)-2-hydroxy-2-(8-hydroxy-2-oxo-1,2-dihydroquinolin-5-yl)ethyl]amino}methyl)-5-methoxyphenyl]carbamoyl}ethyl)-2-phenylphenyl]carbamoyl}oxy)-1,1-dimethylpiperidin-1-ium trifluoroacetate], in assay [1], the IC50 was determined as 19.3 nM. In assay [2], the midpoint of the response, the EC50, lay at 1.1 nM. For the same molecule, the inhibition in vivo at 0.025 mg/kg in assay [3] is no less than 50%.

In the case of `COc1cc(CNC[C@H](O)c2ccc(O)c3[nH]c(=O)ccc23)ccc1NC(=O)CCc1ccc(-c2ccccc2)c(NC(=O)O[C@@H]2C[C@@H]3[C@H]4O[C@H]4[C@H](C2)[N+]3(C)C)c1` [Example 41, (1R,2R,4S,5S,7S)-7-({[5-(2-{[4-({[(2R)-2-hydroxy-2-(8-hydroxy-2-oxo-1,2-dihydroquinolin-5-yl)ethyl]amino}methyl)-2-methoxyphenyl]carbamoyl}ethyl)-2-phenylphenyl]carbamoyl}oxy)-9,9-dimethyl-3-oxa-9-azatricyclo[3.3.1.0^2,4]nonan-9-ium trifluoroacetate], the IC50 in assay [1] was 12.9 nM. For the same molecule, the response in assay [2] was half-maximal at 6.2 nM (EC50).

In the case of `Cc1cc(CNC[C@H](O)c2ccc(O)c3[nH]c(=O)ccc23)ccc1NC(=O)CCCc1ccc(-c2ccccc2)c(NC(=O)OC2CC[N+](C)(C)CC2)c1` [Example 22, 4-({[5-(3-{[4-({[(2R)-2-hydroxy-2-(8-hydroxy-2-oxo-1,2-dihydroquinolin-5-yl)ethyl]amino}methyl)-2-methylphenyl]carbamoyl}propyl)-2-phenylphenyl]carbamoyl}oxy)-1,1-dimethylpiperidin-1-ium trifluoroacetate], the IC50 in assay [1] amounted to 15.8 nM. In addition, a half-maximal response in assay [2] (EC50) required 2.2 nM.
